Reference: patent US12622918B2, “Formulations and dosages for administering a compound that inhibits MCL1 protein” (Amgen Inc., priority 2019, dated 2026)

What was measured:
MM1S = experiment: Cell viability (CellTiterGlo), MM1S; assay type: cell-based; settings: Homo sapiens, MM1.S, Multiple myeloma, 24 hours, 10% FBS, read-out: AMS 176 IC50
Monkey MCL1 = Monkey MCL1 (Macaca fascicularis, UniProt A0A2K5W0Y7); experiment: Cell-free TR-FRET BIM-binding assay, Monkey MCL1; settings: read-out: IC50 (Mean ± SD) of AMG 176 With Respect to Binding; BIM-binding partner Monkey MCL1; n = 3
Sequence of Monkey MCL1 (A0A2K5W0Y7 1-346): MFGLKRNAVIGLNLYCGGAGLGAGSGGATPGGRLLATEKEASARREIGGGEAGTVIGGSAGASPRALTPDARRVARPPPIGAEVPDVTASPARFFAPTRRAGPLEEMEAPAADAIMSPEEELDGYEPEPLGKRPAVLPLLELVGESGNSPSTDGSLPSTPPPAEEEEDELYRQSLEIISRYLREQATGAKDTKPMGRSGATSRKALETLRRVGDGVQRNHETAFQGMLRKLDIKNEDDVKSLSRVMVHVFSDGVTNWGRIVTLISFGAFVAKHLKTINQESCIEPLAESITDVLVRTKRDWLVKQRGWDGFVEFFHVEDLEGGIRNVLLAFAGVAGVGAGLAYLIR

[1] = tested on: OPM2-Luc orthotopic tumors; experiment: OPM2-Luc multiple myeloma orthotopic model, AMG 176 plus carfilzomib; assay type: in vivo; settings: AMG 176 20 mg/kg orally once daily; carfilzomib 3 mg/kg IV twice weekly; day 4 until day 20; female NSG mice
Method: On day 0, female NSG mice were injected IV with 1×10^6 OPM2-Luc human OPM2-Luc multiple myeloma tumor cells transfected with the firefly luciferase gene.

Pharmacokinetics in dogs = assay type: in vivo
Source text: (§1) The pharmacokinetics (PK) of the compound of Formula I after single intravenous (IV) or oral administration were characterized in male CD1 mice, female athymic nude mice, male Nu/Nu mice, male Sprague Dawley rats, male beagle dogs, and male cynomolgus monkeys. The clearance (CL) of the compound was low in mice, rats, dogs, and monkeys relative to their hepatic blood flow. Volume of distribution at steady state (Vss) in mice, rats, dogs, and monkeys was variable across the species.

[2] = in vivo
HL-60 = experiment: Cell viability (CellTiterGlo), HL-60; assay type: cell-based; settings: Homo sapiens; HL-60, AML; 24 hours; 10% FBS; read-out: AMS 176 IC50
Pfeiffer = experiment: Cell viability (CellTiterGlo), Pfeiffer; assay type: cell-based; settings: Homo sapiens, NHL, 24 hours, 10% FBS, read-out: AMS 176 IC50
Pharmacokinetics in mice = assay type: in vivo
Source text: as §1

Pharmacokinetics in rats = settings: male, Sprague Dawley, rat, in vivo, read-out: mean terminal elimination half-life (t1/2,z) (converted)
Source text: as §1

[3] = tested on: subjects with relapsed/refractory multiple myeloma; experiment: Phase 1 FIH study, multiple myeloma part 1a (QD2); assay type: in vivo, human
Method: In part 1a, subjects were enrolled across 8 cohorts, with doses ranging from 30 to 240 mg/m^2 QD2. In part 1b, subjects were enrolled across 2 cohorts, with doses of 120/180-mg/m^2 or 120/240-mg/m^2.

[4] = Distribution into blood cells; assay type: in vitro ADME
[5] = tested on: OPM2-Luc tumor xenografts; experiment: OPM2-Luc xenograft efficacy, once-weekly dosing; assay type: in vivo
Method: Female athymic nude mice were injected subcutaneously with 5×10^6 human OPM2-Luc multiple myeloma tumor cells. […] Tumor volume and body weight were measured twice per week through day 26. […] In the 50 mg/kg intraperitoneal group, 98% regression was observed (p<0.0001) (FIG. 6).

caspase 3 = experiment: Caspase 3 cleavage in OPM2-Luc tumor xenografts (PD); assay type: in vivo, mice; settings: for induction of caspase 3 cleavage: 4-, vs vehicle p<0.05
Method: Activation of the pro-apoptotic pore-forming protein BAK and proteolytic cleavage of the cysteine-aspartic acid protease caspase 3 (hallmarks of the induction of apoptosis) in MCL1-dependent OPM2-Luc multiple myeloma tumor cells served as a PD assay. Female athymic nude mice were injected with 5×10^6 cells in 0.1 mL subcutaneously (SC). […] Mice were euthanized 2, 4, 8, 12, and 24 hours postdose (n=3/group), terminal plasma samples were collected for PK analysis, and tumors were halved and snap frozen in liquid nitrogen for PK and molecular analyses. Tumor lysates were prepared for evaluation of BAK activation and caspase 3 cleavage using an electrochemiluminescence immunoassay. Tumors treated with vehicle (25% HPβCD, pH 8) served as a negative control and indicated the baseline level of apoptosis.

dog blood = experiment: In vitro hemolysis of whole blood, dog; settings: 0.1 and 1.0 mg/mL, vehicles containing hydroxypropyl-β-cyclodextrin
U937 = experiment: Cell viability (CellTiterGlo), U937; assay type: cell-based; settings: Homo sapiens, U-937; U937, NHL; 24 hours; 10% FBS; read-out: AMS 176 IC50
KMS34 = experiment: Cell viability (CellTiterGlo), KMS34; assay type: cell-based; settings: KMS-34; KMS34, Multiple myeloma; 24 hours; 10% FBS; read-out: AMS 176 IC50
KMS-28-PE = experiment: Cell viability (CellTiterGlo), KMS-28-PE; assay type: cell-based; settings: Multiple myeloma, 24 hours, 10% FBS, read-out: AMS 176 IC50
[6] = Plasma protein binding in vitro; assay type: in vitro ADME
[7] = target: T1, MCL1-BAK protein-protein interaction (Homo sapiens, UniProt Q07820); experiment: MCL1-BAK protein-protein interaction PD assay, HEK 293M MCL1(1-327)-Luc/BAK-Luc Matrigel plug model in mice; assay type: in vivo; settings: for inhibition of MCL1-BAK protein-protein interaction, as measured by luciferase activity: 2-, vs vehicle p<0.0025, female athymic nude mice
T1 construct: human MCL1 encoding amino acids 1-327 and full-length human BAK; expressed in transfected cells; host or cells: HEK 293M cells, stably transfected, in Matrigel plugs in female athymic nude mice
T1 sequence (Q07820 1-327): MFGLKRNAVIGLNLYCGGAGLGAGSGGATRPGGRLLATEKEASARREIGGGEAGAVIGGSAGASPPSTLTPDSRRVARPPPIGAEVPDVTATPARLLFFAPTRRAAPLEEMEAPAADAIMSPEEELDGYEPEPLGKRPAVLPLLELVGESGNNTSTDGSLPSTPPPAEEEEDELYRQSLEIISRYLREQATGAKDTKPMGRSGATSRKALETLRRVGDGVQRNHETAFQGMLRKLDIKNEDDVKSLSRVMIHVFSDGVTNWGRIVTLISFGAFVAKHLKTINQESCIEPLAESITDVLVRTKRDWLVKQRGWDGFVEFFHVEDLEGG
Source text: The inhibition of MCL1-BAK protein-protein interaction was used as a pharmacodynamics (PD) assay in HEK 293M cells stably transfected so as to express the N-terminal fragment of human MCL1 encoding amino acids 1-327 and full-length human BAK, linked to the N- and C-terminal fragments of firefly luciferase, respectively (interaction between MCL1 [1-327] and BAK results in the complementation of the C- and N-terminal fragments of luciferase and the formation of active luciferase).

CO[C@H]1/C=C/C[C@H](C)[C@@H](C)S(=O)(=O)NC(=O)c2ccc3c(c2)N(C[C@@H]2CC[C@H]21)C[C@@]1(CCCc2cc(Cl)ccc21)CO3 [AMG 176]
IC50 (MM1S): 5.12 µM | IC50 (Monkey MCL1): 0.000182 µM | TGI (tumor burden) [1]: 86% | mean terminal elimination half-life (t1/2,z) (Pharmacokinetics in dogs): 10.8 h | phototoxicity [2]: not phototoxic | IC50 (HL-60): 0.11 µM | IC50 (Pfeiffer): 18.9 µM | mean terminal elimination half-life (t1/2,z) (Pharmacokinetics in mice): 13.8 h | half-life (Pharmacokinetics in rats): 19.5 h | Grade 3 adverse events, subjects ([3]; MM part 1a): 65% | Serious adverse events, subjects ([3]; MM part 1a): 31% | adverse events considered related to AMG 176, subjects ([3]; MM part 1a): 69% | adverse events leading to discontinuation of investigational product ([3]; MM part 1a): No adverse event led to discontinuation | anemia of grade 3 or higher ([3]; MM part 1a): 15% | decreased neutrophil count of grade 3 or higher ([3]; MM part 1a): 8% | decreased white blood cell count of grade 3 or higher ([3]; MM part 1a): 8% | grade 4 adverse events, subjects ([3]; MM part 1a): 31% | hypertension of grade 3 or higher ([3]; MM part 1a): 8% | neutropenia of grade 3 or higher ([3]; MM part 1a): 31% | related diarrhea ([3]; MM part 1a): 19% | related nausea ([3]; MM part 1a): 23% | related neutropenia ([3]; MM part 1a): 23% | treatment-emergent adverse events, subjects ([3]; MM part 1a QD2, 26 subjects): 96% | anemia, subjects ([3]; MM part 1a, any grade): 27% | diarrhea, subjects ([3]; MM part 1a, any grade): 31% | fatigue, subjects ([3]; MM part 1a, any grade): 27% | nausea, subjects ([3]; MM part 1a, any grade): 35% | neutropenia, subjects ([3]; MM part 1a, any grade): 31% | dose-limiting toxicity (DLT) reported ([3]; MM part 1a, 1 subject in the 240 mg/m^2 cohort, fatal): tumor lysis syndrome | exposures (Cmax and AUC) versus dose ([3]; MM part 1a, 25 subjects, preliminary): generally increased with increasing doses | fatal adverse events ([3]; MM part 1a, hepatic failure (50 mg/m^2, not related), tumor lysis syndrome (240 mg/m^2, related)): Two | distribution into blood cells [4]: did not preferentially distribute into blood cells | tumor regression ([5]; 50 mg/kg intraperitoneally once per week): 98% | TGI ([5]; 50 mg/kg orally once per week): 97% | animals tumor free ([5]; 100 mg/kg once per week, day 26): Five out of 10 | tumor growth inhibition (TGI) ([5]; 100 mg/kg once-weekly oral, as stated in summary b107): 70% | tumor regression ([5]; 100 mg/kg orally once per week): 70% | overt toxicity by changes in body weight ([5]; once-weekly dosing groups): No evidence of overt toxicity | induction of caspase 3 cleavage (caspase 3; 20 mg/kg oral gavage, 8-, and 12-hour time points): Statistically significant induction of caspase 3 cleavage | induction of caspase 3 cleavage (caspase 3; 30 mg/kg oral gavage, 2-, 8-, and 12-hour time points): Statistically significant induction of caspase 3 cleavage | induction of caspase 3 cleavage (caspase 3; 60 mg/kg oral gavage, 2-, 8-, 12-, and 24-hour time points): Statistically significant induction of caspase 3 cleavage | induction of cleaved caspase 3 (caspase 3; 60 mg/kg, 2 hours postdose, persisted to 12 hours): approximately 7.5 fold | cleaved caspase levels above control (caspase 3; 60 mg/kg, 24 hours postdose): 5 fold | hemolysis of whole blood (dog blood): cased hemolysis | IC50 (U937): 0.474 µM | IC50 (KMS34): 6.05 µM | IC50 (KMS-28-PE): 12 µM | plasma protein binding [6]: highly plasma-protein bound | inhibition of MCL1-BAK protein-protein interaction, as measured by luciferase activity ([7]; 3 mg/kg, 8-, 12-, and 24-hour time points): Statistically significant inhibition | inhibition of MCL1-BAK protein-protein interaction, as measured by luciferase activity ([7]; 10 mg/kg, 4-, 8-, and 12-hour time points): Statistically significant inhibition | inhibition of MCL1-BAK protein-protein interaction, as measured by luciferase activity ([7]; 30 mg/kg, 4-, 8-, 12-, and 24-hour time points): Statistically significant inhibition | inhibition of the interaction between human MCL1 and human BAK in vivo ([7]; summary statement): dose-dependent inhibition
